The source of these data is patent US10301295B2, “Herbicidal compounds” (Syngenta Participations AG, priority 2014, dated 2019).

Where two headings read alike, the source gives them in different places.

Experiment in all cases: Glasshouse assay for herbicidal activity, pre-/post-emergence (percentage phytotoxicity)
Holding throughout (type): in vivo

For assay [1], the system named is Echinochloa crus-galli (ECHCG). The conditions noted are these: Rate 250 g/ha, 100%=total damage, 0%=no damage; for pest or weed control at 250 g/ha: Echinochloa crus-galli. Here is the method: (§1) Seeds of a variety of monocotyledonous and dicotyledonous test plants are sown in standard soil in pots. The plants are cultivated for one day (for pre-emergence) or for about 12 days (for post-emergence) under controlled conditions in a glasshouse (warm climate species at 24/18° C., cool climate species at 20/16° C., both at day/night; 16 hours light; 65% humidity). The test plants are then grown on, in a glasshouse (greenhouse) under controlled conditions (warm climate species at 24/18° C., cool climate species at 20/16° C., both at day/night; 16 hours light; 65% humidity) and are watered twice daily. 15 days after application of the test herbicide (15DAA) (for post-emergence), and 20 days after application of the test herbicide (20DAA) (for pre-emergence), the test plants are evaluated visually, and an assessed percentage phytotoxicity score is given for each herbicidal application on each plant species (with 100%=total damage to plant; 0%=no damage to plant). The plant species tested are as follows: Alopecurus myosuroides (ALOMY), Avena fatua (AVEFA), Lolium perenne (LOLPE), Echinochloa crus-galli (ECHCG).

Another assay concerns Avena fatua (AVEFA). Particulars: Rate 250 g/ha, 100%=total damage, 0%=no damage; for pest or weed control at 250 g/ha: Avena fatua. Here is the method: as §1
In assay [2] the test system is Alopecurus myosuroides (ALOMY). The conditions noted are these: Rate 250 g/ha, 100%=total damage, 0%=no damage; for pest or weed control at 250 g/ha: Alopecurus myosuroides. Here is the method:
as §1

The subject of the next assay is Lolium perenne (LOLPE). Particulars: Rate 250 g/ha, 100%=total damage, 0%=no damage; for pest or weed control at 250 g/ha: Lolium perenne. Here is the method:
as §1

Where [3] appears, read: post-emergence, 360 h, post-emergence, visual assessment 15 DAA, read-out: Post-emergence herbicidal activity (percentage phytotoxicity), ECHCG POST.
Setting [4] is: pre-emergence, 480 h, pre-emergence, visual assessment 20 DAA, read-out: Pre-emergence herbicidal activity (percentage phytotoxicity), ECHCG PRE.
Where [5] appears, read: post-emergence, 360 h, post-emergence, visual assessment 15 DAA, read-out: Post-emergence herbicidal activity (percentage phytotoxicity), AVEFA POST.
The mark [6] stands for this setting: pre-emergence, 480 h, pre-emergence, visual assessment 20 DAA, read-out: Pre-emergence herbicidal activity (percentage phytotoxicity), AVEFA PRE.
The mark [7] stands for this setting: 360 h, post-emergence, visual assessment 15 DAA, read-out: Post-emergence herbicidal activity (percentage phytotoxicity), ALOMY POST.
[8] abbreviates: 480 h, pre-emergence, visual assessment 20 DAA, read-out: Pre-emergence herbicidal activity (percentage phytotoxicity), ALOMY PRE.
Where [9] appears, read: post-emergence, 360 h, post-emergence, visual assessment 15 DAA, read-out: Post-emergence herbicidal activity (percentage phytotoxicity), LOLPE POST.
[10] abbreviates: pre-emergence, 480 h, pre-emergence, visual assessment 20 DAA, read-out: Pre-emergence herbicidal activity (percentage phytotoxicity), LOLPE PRE.
[11] abbreviates: post-emergence, visual assessment 15 DAA.
[12] abbreviates: pre-emergence, visual assessment 20 DAA.

For `Cc1cc(C)c(C2C(=O)CC(CCNc3ncc(F)cn3)C2=O)c(C)c1` (stereo not drawn) [Compound A121], the pest or weed control at 250 g/ha (in assay [1] (setting [3]); in assay [1] (setting [4]); in the assay on Avena fatua (AVEFA) (setting [5]); in the assay with Avena fatua (AVEFA) (setting [6]); in assay [2] (setting [7]); in assay [2] (setting [8])) was 100% throughout. Besides, the pest or weed control at 250 g/ha in the assay on Lolium perenne (LOLPE) (setting [9]) turned out to be 90%; in the assay on Lolium perenne (LOLPE) (setting [10]), 100%.
As for `Cc1cc(C)c(C2C(=O)CC(CCNc3ncccc3C#N)C2=O)c(C)c1` (stereo not drawn) [Compound A124], the pest or weed control at 250 g/ha in assay [1] (setting [3]) is 100%; in assay [1] (setting [4]) it was 90%; in the assay with Avena fatua (AVEFA) (setting [5]), 60%; with Avena fatua (AVEFA) (setting [6]), 40%; in assay [2] (setting [7]) it was 80%; in assay [2] (setting [8]) it was 60%. The pest or weed control at 250 g/ha with Lolium perenne (LOLPE) (setting [9]) and in the assay with Lolium perenne (LOLPE) (setting [10]) was 80% each time.
Consider `Cc1cc(-c2ccc(C#N)cn2)cc(C)c1C1C(=O)CC(CCNC(=O)C2=NOC(C)(C)C2)C1=O` (stereo not drawn) [Compound A119], for which the pest or weed control at 250 g/ha amounted to 100% in assay [1] (setting [3]); 90% in assay [1] (setting [4]); 100% with Avena fatua (AVEFA) (setting [5]); 80% with Avena fatua (AVEFA) (setting [6]); 90% in assay [2] (setting [7]); 90% in assay [2] (setting [8]). Besides, the values for the pest or weed control at 250 g/ha in the assay on Lolium perenne (LOLPE) (setting [9]) and in the assay with Lolium perenne (LOLPE) (setting [10]) were 100% and 80%, respectively.
`Cc1cc(-c2ncc(F)cn2)cc(C)c1C1C(=O)CC(CCNc2ccc(C(F)(F)F)cn2)C1=O` (stereo not drawn) [Compound A120]: the pest or weed control at 250 g/ha is 100% in assay [1] (setting [3]); 90% in assay [1] (setting [4]); 100% in the assay on Avena fatua (AVEFA) (setting [5]); 90% in the assay on Avena fatua (AVEFA) (setting [6]); 90% in assay [2] (setting [7]); 90% in assay [2] (setting [8]). Also, the pest or weed control at 250 g/ha with Lolium perenne (LOLPE) (setting [9]) and in the assay on Lolium perenne (LOLPE) (setting [10]) was 90% throughout.
`Cc1cc(C)c(C2C(=O)C[C@@H](CCNC(=O)C3=NOC(C)(C)C3)C2=O)c(C)c1` (stereo partly drawn) [Compound A102]: the pest or weed control at 250 g/ha in assay [1] (setting [3]) is 100%; in assay [1] (setting [4]), 100%; with Avena fatua (AVEFA) (setting [5]), 100%; with Avena fatua (AVEFA) (setting [6]), 90%; in assay [2] (setting [7]) it was 100%; in assay [2] (setting [8]), 100%. For the same compound, the pest or weed control at 250 g/ha in the assay with Lolium perenne (LOLPE) (setting [9]) and with Lolium perenne (LOLPE) (setting [10]) was 100% throughout.
Take `Cc1cc(-n2cc(Cl)cn2)cc(C)c1C1C(=O)CC(CCNc2ccc([N+](=O)[O-])cn2)C1=O` (stereo not drawn) [Compound A99]: the pest or weed control at 250 g/ha in assay [1] (setting [3]) is 100%; in assay [1] (setting [4]), 0%; in the assay on Avena fatua (AVEFA) (setting [5]), 90%; in the assay on Avena fatua (AVEFA) (setting [6]), 0%; in assay [2] (setting [7]), 70%; in assay [2] (setting [8]), 0%. In addition, the pest or weed control at 250 g/ha in the assay on Lolium perenne (LOLPE) (setting [9]) was determined as 60%; in the assay on Lolium perenne (LOLPE) (setting [10]), 0%.
Take `Cc1cc(C)c(C2C(=O)CC(CCNc3ccc([N+](=O)[O-])cc3)C2=O)c(C)c1` (stereo not drawn) [Compound A105]: the pest or weed control at 250 g/ha was found to be 90% in assay [1] (setting [3]); 10% in assay [1] (setting [4]); 80% in the assay with Avena fatua (AVEFA) (setting [5]); 20% in the assay on Avena fatua (AVEFA) (setting [6]); 90% in assay [2] (setting [7]); 20% in assay [2] (setting [8]). Besides, the pest or weed control at 250 g/ha was determined as 80% with Lolium perenne (LOLPE) (setting [9]) and 20% in the assay on Lolium perenne (LOLPE) (setting [10]).
`C=Cc1cc(C)cc(C)c1C1C(=O)CC(CCNC(=O)C2=NOC(C)(C)C2)C1=O` (racemic) [Compound A122, N-[2-[3-(2,4-dimethyl-6-vinyl-phenyl)-2,4-dioxo-cyclopentyl]ethyl]-5,5-dimethyl-4H-isoxazole-3-carboxamide]: the pest or weed control at 250 g/ha in assay [1] (setting [3]) was determined as 90%; in assay [1] (setting [4]), 0%; in the assay with Avena fatua (AVEFA) (setting [5]), 90%; in the assay on Avena fatua (AVEFA) (setting [6]), 0%; in assay [2] (setting [7]) it was 90%; in assay [2] (setting [8]), 0%. For the same compound, the pest or weed control at 250 g/ha worked out at 80% in the assay with Lolium perenne (LOLPE) (setting [9]) and 0% in the assay with Lolium perenne (LOLPE) (setting [10]).
For `CC#Cc1cc(C)c(C2C(=O)CC(CCNC(=O)C3=NOC(C)(C)C3)C2=O)c(C)c1` (stereo not drawn) [Compound A108], the pest or weed control at 250 g/ha came out at 100% in assay [1] (setting [3]); 100% in assay [1] (setting [4]); 100% in the assay with Avena fatua (AVEFA) (setting [5]); 90% in the assay on Avena fatua (AVEFA) (setting [6]); 100% in assay [2] (setting [7]); 100% in assay [2] (setting [8]). Besides, the pest or weed control at 250 g/ha in the assay with Lolium perenne (LOLPE) (setting [9]) and with Lolium perenne (LOLPE) (setting [10]) was 100% each time.
On to `Cc1cc(-n2cc(Cl)cn2)cc(C)c1C1C(=O)CC(CCNc2ccc(C(F)(F)F)cn2)C1=O` (stereo not drawn) [Compound A100], for which the pest or weed control at 250 g/ha in assay [1] (setting [3]) came out at 100%; in assay [1] (setting [4]), 90%; with Avena fatua (AVEFA) (setting [5]) it was 100%; in the assay with Avena fatua (AVEFA) (setting [6]), 50%; in assay [2] (setting [7]), 90%; in assay [2] (setting [8]), 60%. Also, the pest or weed control at 250 g/ha in the assay on Lolium perenne (LOLPE) (setting [9]) amounted to 100%; in the assay on Lolium perenne (LOLPE) (setting [10]), 70%.
As for `Cc1cc(-c2ncc(F)cc2F)cc(C)c1C1C(=O)CC(CCNC(=O)C2=NOC(C)(C)C2)C1=O` (stereo not drawn) [Compound A111], the pest or weed control at 250 g/ha came to 100% in assay [1] (setting [3]); 90% in assay [1] (setting [4]); 100% in the assay with Avena fatua (AVEFA) (setting [5]); 100% in the assay on Avena fatua (AVEFA) (setting [6]); 100% in assay [2] (setting [7]); 100% in assay [2] (setting [8]). For the same compound, the pest or weed control at 250 g/ha worked out at 40% with Lolium perenne (LOLPE) (setting [9]) and 90% in the assay with Lolium perenne (LOLPE) (setting [10]).
As for `Cc1cc(-n2cc(Cl)cn2)cc(C)c1C1C(=O)CC(CCNc2ncc(C(F)(F)F)cc2F)C1=O` (stereo not drawn) [Compound A98], the pest or weed control at 250 g/ha in assay [1] (setting [3]) worked out at 100%; in assay [1] (setting [4]), 90%; in the assay with Avena fatua (AVEFA) (setting [5]), 100%; in the assay with Avena fatua (AVEFA) (setting [6]), 70%; in assay [2] (setting [7]), 90%; in assay [2] (setting [8]), 40%. Besides, the pest or weed control at 250 g/ha in the assay on Lolium perenne (LOLPE) (setting [9]) and in the assay with Lolium perenne (LOLPE) (setting [10]) was 90% each time.
Take `Cc1cc(C)c(C2C(=O)CC(CCNc3ccc([N+](=O)[O-])cc3C(F)(F)F)C2=O)c(C)c1` (stereo not drawn) [Compound A104]: the pest or weed control at 250 g/ha in assay [1] (setting [3]) was found to be 70%; in assay [1] (setting [4]), 90%; in the assay with Avena fatua (AVEFA) (setting [5]), 80%; in the assay with Avena fatua (AVEFA) (setting [6]), 70%; in assay [2] (setting [7]) it was 90%; in assay [2] (setting [8]), 60%. Also, the pest or weed control at 250 g/ha worked out at 90% with Lolium perenne (LOLPE) (setting [9]) and 80% in the assay on Lolium perenne (LOLPE) (setting [10]).
Regarding `Cc1cc(C)c(C2C(=O)CC(CCNC(=O)Nc3ccc(F)cn3)C2=O)c(C)c1.Cl` (stereo not drawn) [Compound A93], the “Post-emergence herbicidal activity (percentage phytotoxicity), ECHCG POST” value in assay [1] (setting [11]) was 100%. In addition, the “Pre-emergence herbicidal activity (percentage phytotoxicity), ECHCG PRE” value in assay [1] (setting [12]) was determined as 90%. The “Post-emergence herbicidal activity (percentage phytotoxicity), AVEFA POST” value in the assay with Avena fatua (AVEFA) (setting [11]) was determined as 90%. For the same compound, the “Pre-emergence herbicidal activity (percentage phytotoxicity), AVEFA PRE” value in the assay on Avena fatua (AVEFA) (setting [12]) is given as 70%. For the same compound, the “Post-emergence herbicidal activity (percentage phytotoxicity), ALOMY POST” value in assay [2] (setting [11]) is given as 90%. In assay [2] (setting [12]), the “Pre-emergence herbicidal activity (percentage phytotoxicity), ALOMY PRE” value was 90%. In addition, the “Post-emergence herbicidal activity (percentage phytotoxicity), LOLPE POST” value in the assay on Lolium perenne (LOLPE) (setting [11]) was 70%. Further, the “Pre-emergence herbicidal activity (percentage phytotoxicity), LOLPE PRE” value in the assay with Lolium perenne (LOLPE) (setting [12]) is 90%.
Turning to `Cc1cc(C)c(C2C(=O)CC(CCNc3ccc(C#N)cc3C(F)(F)F)C2=O)c(C)c1` (stereo not drawn) [Compound A106], the pest or weed control at 250 g/ha stood at 90% in assay [1] (setting [3]); 90% in assay [1] (setting [4]); 90% in the assay with Avena fatua (AVEFA) (setting [5]); 40% with Avena fatua (AVEFA) (setting [6]); 90% in assay [2] (setting [7]); 70% in assay [2] (setting [8]). Also, the pest or weed control at 250 g/ha was 90% with Lolium perenne (LOLPE) (setting [9]) and 60% in the assay with Lolium perenne (LOLPE) (setting [10]).
